Assay results from ChEMBL document CHEMBL3112450, “Synthesis and in vitro antitumor evaluation of primary amine substituted quinazoline linked benzimidazole” (Bioorg Med Chem Lett, 2014).

Legend:
Type in all cases: functional
T47D = assay: Cytotoxicity against human T47D cells assessed as growth inhibition at 10 uM after 48 hrs by SRB assay; conditions: read-out: GI
IGROV-1 = assay: Cytotoxicity against human IGROV1 cells assessed as cell growth at 10^-7 M after 48 hrs by SRB assay; conditions: IGROV-1, 48 h, read-out: Activity
K562 [1] = assay: Cytotoxicity against human K562 cells after 48 hrs by SRB assay; conditions: K562, 48 h
CCRF-CEM = assay: Cytotoxicity against human CCRF-CEM cells after 48 hrs by SRB assay
Malme-3M [2] = assay: Cytotoxicity against human MALME-3M cells assessed as cell growth at 10^-7 M after 48 hrs by SRB assay; conditions: read-out: Activity
LOX IMVI = assay: Cytotoxicity against human LOXIMVI cells assessed as cell growth at 10^-7 M after 48 hrs by SRB assay; conditions: read-out: Activity
SNB-19 [3] = assay: Cytotoxicity against human SNB19 cells assessed as cell growth at 10^-7 M after 48 hrs by SRB assay; conditions: SNB-19, 48 h, read-out: Activity
SF-539 [4] = assay: Cytotoxicity against human SF539 cells assessed as cell growth at 10^-7 M after 48 hrs by SRB assay; conditions: SF-539, 48 h, read-out: Activity
MOLT-4 = assay: Cytotoxicity against human MOLT4 cells assessed as cell growth at 10^-7 M after 48 hrs by SRB assay; conditions: MOLT-4, 48 h, read-out: Activity
OVCAR-8 [5] = assay: Cytotoxicity against human OVCAR8 cells assessed as cell growth at 10^-4 M after 48 hrs by SRB assay; conditions: OVCAR-8, 48 h, read-out: Activity
SF-295 = assay: Cytotoxicity against human SF295 cells assessed as cell growth at 10^-4 M after 48 hrs by SRB assay; conditions: SF-295, 48 h, read-out: Activity
HCT-15 [6] = assay: Cytotoxicity against human HCT15 cells assessed as cell growth at 10^-4 M after 48 hrs by SRB assay; conditions: HCT-15, 48 h, read-out: Activity
NCI-H322M = assay: Cytotoxicity against human NCI-H322M cells assessed as cell growth at 10^-4 M after 48 hrs by SRB assay; conditions: read-out: Activity
HL-60(TB) = assay: Cytotoxicity against human HL-60(TB) cells assessed as cell growth at 10^-4 M after 48 hrs by SRB assay; conditions: HL-60, 48 h, read-out: Activity
SN12C = assay: Cytotoxicity against human SN12C cells assessed as cell growth at 10^-8 M after 48 hrs by SRB assay; conditions: read-out: Activity
SK-MEL-5 = assay: Cytotoxicity against human SK-MEL-5 cells assessed as cell growth at 10^-8 M after 48 hrs by SRB assay; conditions: SK-MEL-5, 48 h, read-out: Activity
Malme-3M [7] = assay: Cytotoxicity against human MALME-3M cells assessed as cell growth at 10^-8 M after 48 hrs by SRB assay; conditions: read-out: Activity
HCT-15 [8] = assay: Cytotoxicity against human HCT15 cells assessed as cell growth at 10^-8 M after 48 hrs by SRB assay; conditions: HCT-15, 48 h, read-out: Activity
NCI-H460 = assay: Cytotoxicity against human NCI-H460 cells assessed as cell growth at 10^-8 M after 48 hrs by SRB assay; conditions: NCI-H460, 48 h, read-out: Activity
KM12 [9] = assay: Cytotoxicity against human KM12 cells after 48 hrs by SRB assay; conditions: KM12, 48 h
COLO 205 = assay: Cytotoxicity against human COLO205 cells after 48 hrs by SRB assay; conditions: COLO 205, 48 h
MDA-MB-468 = assay: Cytotoxicity against human MDA-MB-468 cells assessed as cell growth at 10^-6 M after 48 hrs by SRB assay; conditions: MDA-MB-468, 48 h, read-out: Activity
DU-145 = assay: Cytotoxicity against human DU145 cells assessed as cell growth at 10^-6 M after 48 hrs by SRB assay; conditions: DU-145, 48 h, read-out: Activity
ACHN = assay: Cytotoxicity against human ACHN cells assessed as cell growth at 10^-6 M after 48 hrs by SRB assay; conditions: read-out: Activity
786-0 = assay: Cytotoxicity against human 786-0 cells assessed as cell growth at 10^-6 M after 48 hrs by SRB assay; conditions: 786-0, 48 h, read-out: Activity
OVCAR-8 [10] = assay: Cytotoxicity against human OVCAR8 cells assessed as cell growth at 10^-6 M after 48 hrs by SRB assay; conditions: OVCAR-8, 48 h, read-out: Activity
OVCAR-3 = assay: Cytotoxicity against human OVCAR3 cells assessed as cell growth at 10^-6 M after 48 hrs by SRB assay; conditions: OVCAR-3, 48 h, read-out: Activity
SK-MEL-2 = assay: Cytotoxicity against human SK-MEL-2 cells assessed as cell growth at 10^-6 M after 48 hrs by SRB assay; conditions: SK-MEL-2, 48 h, read-out: Activity
SF-539 [11] = assay: Cytotoxicity against human SF539 cells assessed as cell growth at 10^-6 M after 48 hrs by SRB assay; conditions: SF-539, 48 h, read-out: Activity
SNB-19 [12] = assay: Cytotoxicity against human SNB19 cells assessed as cell growth at 10^-6 M after 48 hrs by SRB assay; conditions: SNB-19, 48 h, read-out: Activity
KM12 [13] = assay: Cytotoxicity against human KM12 cells assessed as cell growth at 10^-6 M after 48 hrs by SRB assay; conditions: KM12, 48 h, read-out: Activity
HCC 2998 = assay: Cytotoxicity against human HCC2998 cells assessed as cell growth at 10^-6 M after 48 hrs by SRB assay; conditions: HCC 2998, 48 h, read-out: Activity
NCI-H226 = assay: Cytotoxicity against human NCI-H226 cells assessed as cell growth at 10^-6 M after 48 hrs by SRB assay; conditions: NCI-H226, 48 h, read-out: Activity
K562 [14] = assay: Cytotoxicity against human K562 cells assessed as cell growth at 10^-6 M after 48 hrs by SRB assay; conditions: K562, 48 h, read-out: Activity
MDA-MB-231 = assay: Cytotoxicity against human MDA-MB-231 cells assessed as cell growth at 10^-7 M after 48 hrs by SRB assay; conditions: MDA-MB-231, 48 h, read-out: Activity
PC-3 = assay: Cytotoxicity against human PC3 cells assessed as cell growth at 10^-7 M after 48 hrs by SRB assay; conditions: PC-3, 48 h, read-out: Activity
[15] = Cytotoxicity against human UO31 cells assessed as cell growth at 10^-7 M after 48 hrs by SRB assay; conditions: UO-31, 48 h, read-out: Activity
CAKI-1 = assay: Cytotoxicity against human Caki1 cells assessed as cell growth at 10^-7 M after 48 hrs by SRB assay; conditions: CAKI-1, 48 h, read-out: Activity
A498 = assay: Cytotoxicity against human A498 cells assessed as growth inhibition at 10 uM after 48 hrs by SRB assay; conditions: A498, 48 h, read-out: GI

## C=CCn1c(C)nc2ccc(Nc3nc(Nc4ncccn4)nc4ccccc34)cc21
T47D
  inhibition of growth at 10 µM: 40%

## C=CCn1c(C)nc2ccc(Nc3nc(Nc4ccc5nc(C)n(CC=C)c5c4)c4ccccc4n3)cc21
IGROV-1
  growth at 0.1 µM: 101%
K562 [1]
  GI50: 1420 nM
  LC50 (concentration killing 50% of cells): > 100000 nM
CCRF-CEM
  GI50: 2090 nM
  LC50: > 100000 nM
Malme-3M [2]
  growth at 0.1 µM: 92%
LOX IMVI
  growth at 0.1 µM: 91%
SNB-19 [3]
  growth at 0.1 µM: 92%
SF-539 [4]
  growth at 0.1 µM: 94%
MOLT-4
  growth at 0.1 µM: 94%
OVCAR-8 [5]
  growth at 100 µM: -18%
SF-295
  growth at 100 µM: -21%
HCT-15 [6]
  growth at 100 µM: -15%
NCI-H322M
  growth at 100 µM: -58%
HL-60(TB)
  growth at 100 µM: -32%
SN12C
  growth at 0.01 µM: 96%
SK-MEL-5
  growth at 0.01 µM: 94%
Malme-3M [7]
  growth at 0.01 µM: 91%
HCT-15 [8]
  growth at 0.01 µM: 96%
NCI-H460
  growth at 0.01 µM: 102%
KM12 [9]
  GI50: 1640 nM
  TGI: 3080 nM
COLO 205
  GI50: 1430 nM
  TGI: 2740 nM
MDA-MB-468
  growth at 1 µM: 64%
DU-145
  growth at 1 µM: 104%
ACHN
  growth at 1 µM: 91%
786-0
  growth at 1 µM: 92%
OVCAR-8 [10]
  growth at 1 µM: 80%
OVCAR-3
  growth at 1 µM: 94%
SK-MEL-2
  growth at 1 µM: 107%
SF-539 [11]
  growth at 1 µM: 94%
SNB-19 [12]
  growth at 1 µM: 85%
KM12 [13]
  growth at 1 µM: 89%
HCC 2998
  growth at 1 µM: 96%
NCI-H226
  growth at 1 µM: 94%
K562 [14]
  growth at 1 µM: 68%
MDA-MB-231
  growth at 0.1 µM: 87%
PC-3
  growth at 0.1 µM: 88%
[15]
  growth at 0.1 µM: 80%
CAKI-1
  growth at 0.1 µM: 90%

## C=CCn1c(C)nc2cc(Nc3nc(Nc4ccc5nc(C)n(CC=C)c5c4)c4ccccc4n3)ccc21
IGROV-1
  growth at 0.1 µM: 106%
K562 [1]
  GI50: 218 nM
CCRF-CEM
  GI50: 296 nM
  LC50: > 100000 nM
  TGI: 769 nM
Malme-3M [2]
  growth at 0.1 µM: 97%
LOX IMVI
  growth at 0.1 µM: 96%
SNB-19 [3]
  growth at 0.1 µM: 88%
SF-539 [4]
  growth at 0.1 µM: 101%
MOLT-4
  growth at 0.1 µM: 91%
OVCAR-8 [5]
  growth at 100 µM: 1%
SF-295
  growth at 100 µM: -85%
HCT-15 [6]
  growth at 100 µM: 2%
NCI-H322M
  growth at 100 µM: -70%
HL-60(TB)
  growth at 100 µM: -28%
SN12C
  growth at 0.01 µM: 94%
SK-MEL-5
  growth at 0.01 µM: 100%
Malme-3M [7]
  growth at 0.01 µM: 95%
HCT-15 [8]
  growth at 0.01 µM: 101%
NCI-H460
  growth at 0.01 µM: 102%
KM12 [9]
  GI50: 223 nM
  LC50 (concentration killing 50% of cells): 1460 nM
  TGI: 513 nM
COLO 205
  GI50: 195 nM
  TGI: 375 nM
MDA-MB-468
  growth at 1 µM: -28%
DU-145
  growth at 1 µM: 18%
ACHN
  growth at 1 µM: 35%
786-0
  growth at 1 µM: -78%
OVCAR-8 [10]
  growth at 1 µM: -11%
OVCAR-3
  growth at 1 µM: -78%
SK-MEL-2
  growth at 1 µM: 74%
SF-539 [11]
  growth at 1 µM: 56%
SNB-19 [12]
  growth at 1 µM: 54%
KM12 [13]
  growth at 1 µM: -40%
HCC 2998
  growth at 1 µM: 63%
NCI-H226
  growth at 1 µM: 89%
K562 [14]
  growth at 1 µM: -45%
MDA-MB-231
  growth at 0.1 µM: 101%
PC-3
  growth at 0.1 µM: 96%
[15]
  growth at 0.1 µM: 86%
CAKI-1
  growth at 0.1 µM: 97%

## C=CCn1c(C)nc2ccc(Nc3nc(Nc4ccc(F)cc4)nc4ccccc34)cc21
IGROV-1
  growth at 0.1 µM: 94%
K562 [1]
  GI50: 3130 nM
  LC50 (concentration killing 50% of cells): > 100000 nM
  TGI: 11900 nM
CCRF-CEM
  GI50: 3010 nM
  LC50: > 100000 nM
  TGI: 11700 nM
Malme-3M [2]
  growth at 0.1 µM: 98%
LOX IMVI
  growth at 0.1 µM: 98%
SNB-19 [3]
  growth at 0.1 µM: 93%
SF-539 [4]
  growth at 0.1 µM: 98%
MOLT-4
  growth at 0.1 µM: 96%
OVCAR-8 [5]
  growth at 100 µM: -26%
SF-295
  growth at 100 µM: -87%
HCT-15 [6]
  growth at 100 µM: -38%
NCI-H322M
  growth at 100 µM: -82%
HL-60(TB)
  growth at 100 µM: -45%
SN12C
  growth at 0.01 µM: 93%
SK-MEL-5
  growth at 0.01 µM: 92%
Malme-3M [7]
  growth at 0.01 µM: 97%
HCT-15 [8]
  growth at 0.01 µM: 99%
NCI-H460
  growth at 0.01 µM: 100%
T47D
  inhibition of growth at 10 µM: 50%
A498
  inhibition of growth at 10 µM: 40%
KM12 [9]
  GI50: 4070 nM
  LC50 (concentration killing 50% of cells): 51800 nM
  TGI: 16400 nM
COLO 205
  GI50: 1750 nM
  TGI: 3250 nM
MDA-MB-468
  growth at 1 µM: 64%
DU-145
  growth at 1 µM: 95%
ACHN
  growth at 1 µM: 94%
786-0
  growth at 1 µM: 96%
OVCAR-8 [10]
  growth at 1 µM: 93%
OVCAR-3
  growth at 1 µM: 97%
SK-MEL-2
  growth at 1 µM: 96%
SF-539 [11]
  growth at 1 µM: 89%
SNB-19 [12]
  growth at 1 µM: 86%
KM12 [13]
  growth at 1 µM: 94%
HCC 2998
  growth at 1 µM: 98%
NCI-H226
  growth at 1 µM: 87%
K562 [14]
  growth at 1 µM: 96%
MDA-MB-231
  growth at 0.1 µM: 98%
PC-3
  growth at 0.1 µM: 92%
[15]
  growth at 0.1 µM: 86%
CAKI-1
  growth at 0.1 µM: 102%

## C=CCn1c(C)nc2cc(Nc3nc(NCCO)nc4ccccc34)ccc21
T47D
  inhibition of growth at 10 µM: 30%
A498
  inhibition of growth at 10 µM: 40%

## C=CCn1c(C)nc2ccc(Nc3nc(Sc4ccc(N)cc4)nc4ccccc34)cc21
T47D
  inhibition of growth at 10 µM: 30%
A498
  inhibition of growth at 10 µM: 50%
